Reference: ChEMBL document CHEMBL4400545 (Bioorg Med Chem, 2019)

Target: Sodium- and chloride-dependent GABA transporter 1 (Mus musculus) (UniProt P31648)
Test: Inhibition of mouse GAT-1 assessed as percentage of remaining specific binding of NO711 at 1 uM after 4 hrs by LC-ESI-MS/ms analysis relative to control

Row | SMILES | Activity [%]
1 | CC(C=O)(CCC#N)c1ccccc1 (stereo unspecified) | 92
2 | COc1ccc(C=O)cc1 | 89
3 | COc1ccccc1C=O | 89
4 | Cc1ccccc1-c1ncccc1C=O | 87
5 | Cc1ccsc1-c1sc(C=O)cc1C | 97
6 | Cc1noc(-c2ccccc2C=O)n1 | 97
7 | Cc1onc(-c2ccc(Cl)cc2)c1C=O | 92
8 | O=CC(c1ccccc1)c1ccccc1 | 90
9 | O=CC1CC2C=CC1C2 (stereo unspecified) | 85
10 | O=Cc1c2ccccc2cc2ccccc12 | 87
11 | O=Cc1c[nH]c2ncccc12 | 85
12 | O=Cc1c[nH]nc1-c1ccc(F)cc1 | 92
13 | O=Cc1cc(F)ccc1-c1ccc(Cl)cc1Cl | 82
14 | O=Cc1cc(F)ccc1-c1ccccc1 | 80
15 | O=Cc1cc(F)ccc1-c1ccccc1Cl | 80
16 | O=Cc1cc(F)ccc1-c1ccccc1F | 80
17 | O=Cc1cc2c(cc1-c1ccc(Cl)cc1Cl)OCO2 | 92
18 | O=Cc1cc2c(cc1-c1ccccc1)OCO2 | 92
19 | O=Cc1cc2c(cc1-c1ccccc1Cl)OCO2 | 92
20 | O=Cc1cc2c(cc1-c1ccccc1F)OCO2 | 92
21 | O=Cc1ccc(-c2ccc(C(F)(F)F)cc2Cl)o1 | 82
22 | O=Cc1ccc(-c2ccccc2)cc1 | 90

Row | SMILES | Activity [%]
23 | O=Cc1ccc(-c2ccccc2OC(F)(F)F)o1 | 82
24 | O=Cc1ccc(Br)cn1 | 92
25 | O=Cc1ccc(Br)nc1 | 92
26 | O=Cc1ccc(C#Cc2ccccc2)s1 | 94
27 | O=Cc1ccc(O)cc1 | 89
28 | O=Cc1ccc(OCc2ccccc2)cc1 | 90
29 | O=Cc1ccc(Oc2ccccc2)cc1 | 90
30 | O=Cc1ccc([N+](=O)[O-])cc1 | 92
31 | O=Cc1ccc2c(c1)Cc1ccccc1-2 | 88
32 | O=Cc1ccc2ccccc2n1 | 87
33 | O=Cc1cccc(Br)n1 | 92
34 | O=Cc1cccc(Oc2ccccc2)c1 | 90
35 | O=Cc1cccc([N+](=O)[O-])c1 | 92
36 | O=Cc1cccc2c1OCO2 | 80
37 | O=Cc1ccccc1 | 89
38 | O=Cc1ccccc1-c1c(F)cccc1F | 88
39 | O=Cc1ccccc1-c1cc(F)ccc1F | 88
40 | O=Cc1ccccc1-c1ccc(Cl)cc1 | 92
41 | O=Cc1ccccc1-c1ccc(Cl)cc1Cl | 93
42 | O=Cc1ccccc1-c1ccc(F)cc1 | 92
43 | O=Cc1ccccc1-c1ccc(F)cc1Cl | 93
44 | O=Cc1ccccc1-c1ccc2ccccc2c1 | 86

Row | SMILES | Activity [%]
45 | O=Cc1ccccc1-c1cccc(Cl)c1 | 92
46 | O=Cc1ccccc1-c1cccc(F)c1 | 92
47 | O=Cc1ccccc1-c1cccc(F)c1F | 88
48 | O=Cc1ccccc1-c1cccc2ccccc12 | 85
49 | O=Cc1ccccc1-c1ccccc1 | 90
50 | O=Cc1ccccc1-c1ccccc1Cl | 93
51 | O=Cc1ccccc1-c1ccccc1F | 93
52 | O=Cc1ccccc1-c1cccnc1 | 88
53 | O=Cc1ccccc1-c1ccco1 | 80
54 | O=Cc1ccccc1-c1cccs1 | 92
55 | O=Cc1ccccc1-n1cccc1 | 97
56 | O=Cc1ccccc1-n1cccn1 | 88
57 | O=Cc1ccccc1OCc1ccccc1 | 90
58 | O=Cc1ccccc1Oc1ccccc1 | 88
59 | O=Cc1ccccc1[N+](=O)[O-] | 92
60 | O=Cc1ccccn1 | 85
61 | O=Cc1cccn1-c1ccc(C(F)(F)F)cc1 | 82
62 | O=Cc1cccnc1 | 94
63 | O=Cc1cccnc1-c1ccc(Cl)cc1 | 87
64 | O=Cc1cccnc1-c1ccc(Cl)cc1Cl | 86
65 | O=Cc1cccnc1-c1cccc(Cl)c1 | 80
66 | O=Cc1cccnc1-c1cccc(F)c1 | 87

Row | SMILES | Activity [%]
67 | O=Cc1cccnc1-c1ccccc1 | 87
68 | O=Cc1cccnc1-c1ccccc1Cl | 97
69 | O=Cc1cccnc1-c1ccccc1F | 80
70 | O=Cc1cccnc1Br | 92
71 | O=Cc1ccnc2ccccc12 | 87
72 | O=Cc1csc2ccccc12 | 94
73 | O=Cc1sccc1-c1ccc(Cl)cc1Cl | 86
74 | O=Cc1sccc1-c1ccc(F)cc1Cl | 86
75 | O=Cc1sccc1-c1ccccc1 | 94
76 | O=Cc1sccc1-n1cccc1 | 92
77 | COc1ccc(/C=N/OCCN2CCCC(C(=O)O)C2)c2ccccc12 (racemic) | 61
78 | COc1ccc(/C=N/OCCN2CCCC(C(=O)O)C2)cc1 (racemic) | 74
79 | COc1ccccc1/C=N/OCCN1CCCC(C(=O)O)C1 (racemic) | 74
80 | Cc1ccc(/C=N/OCCN2CCCC(C(=O)O)C2)c2ccccc12 (racemic) | 60
81 | Cc1ccccc1-c1ncccc1/C=N/OCCN1CCCC(C(=O)O)C1 (racemic) | 22
82 | Cc1ccsc1-c1sc(/C=N/OCCN2CCCC(C(=O)O)C2)cc1C (racemic) | 33
83 | Cc1noc(-c2ccccc2/C=N/OCCN2CCCC(C(=O)O)C2)n1 (racemic) | 33
84 | O=C(O)C1CCCN(CCO/N=C/C2CC3C=CC2C3)C1 (racemic) | 45
85 | O=C(O)C1CCCN(CCO/N=C/COCc2ccccc2)C1 (racemic) | 60
86 | O=C(O)C1CCCN(CCO/N=C/c2c3ccccc3cc3ccccc23)C1 (racemic) | 62
87 | O=C(O)C1CCCN(CCO/N=C/c2c[nH]c3ncccc23)C1 (racemic) | 45
88 | O=C(O)C1CCCN(CCO/N=C/c2cc3c(cc2-c2ccc(Cl)cc2Cl)OCO3)C1 (racemic) | 19

Row | SMILES | Activity [%]
89 | O=C(O)C1CCCN(CCO/N=C/c2cc3c(cc2-c2ccccc2)OCO3)C1 (racemic) | 19
90 | O=C(O)C1CCCN(CCO/N=C/c2cc3c(cc2-c2ccccc2Cl)OCO3)C1 (racemic) | 19
91 | O=C(O)C1CCCN(CCO/N=C/c2cc3c(cc2-c2ccccc2F)OCO3)C1 (racemic) | 19
92 | O=C(O)C1CCCN(CCO/N=C/c2cc3ccccc3c3ccccc23)C1 (racemic) | 62
93 | O=C(O)C1CCCN(CCO/N=C/c2ccc(Br)cn2)C1 (racemic) | 71
94 | O=C(O)C1CCCN(CCO/N=C/c2ccc(Br)nc2)C1 (racemic) | 71
95 | O=C(O)C1CCCN(CCO/N=C/c2ccc(C#Cc3ccccc3)s2)C1 (racemic) | 48
96 | O=C(O)C1CCCN(CCO/N=C/c2ccc(F)c3ccccc23)C1 (racemic) | 60
97 | O=C(O)C1CCCN(CCO/N=C/c2ccc(O)c3ccccc23)C1 (racemic) | 61
98 | O=C(O)C1CCCN(CCO/N=C/c2ccc(O)cc2)C1 (racemic) | 74
99 | O=C(O)C1CCCN(CCO/N=C/c2ccc(OCc3ccccc3)cc2)C1 (racemic) | 29
100 | O=C(O)C1CCCN(CCO/N=C/c2ccc(Oc3ccccc3)cc2)C1 (racemic) | 29
101 | O=C(O)C1CCCN(CCO/N=C/c2ccc([N+](=O)[O-])cc2)C1 (racemic) | 60
102 | O=C(O)C1CCCN(CCO/N=C/c2ccc3c(c2)Cc2ccccc2-3)C1 (racemic) | 37
103 | O=C(O)C1CCCN(CCO/N=C/c2ccc3ccccc3c2)C1 (racemic) | 61
104 | O=C(O)C1CCCN(CCO/N=C/c2ccc3ccccc3n2)C1 (racemic) | 62
105 | O=C(O)C1CCCN(CCO/N=C/c2cccc(Br)n2)C1 (racemic) | 71
106 | O=C(O)C1CCCN(CCO/N=C/c2cccc(Oc3ccccc3)c2)C1 (racemic) | 29
107 | O=C(O)C1CCCN(CCO/N=C/c2cccc([N+](=O)[O-])c2)C1 (racemic) | 60
108 | O=C(O)C1CCCN(CCO/N=C/c2cccc3c2OCO3)C1 (racemic) | 32
109 | O=C(O)C1CCCN(CCO/N=C/c2cccc3ccccc23)C1 (racemic) | 61
110 | O=C(O)C1CCCN(CCO/N=C/c2ccccc2)C1 (racemic) | 74

Row | SMILES | Activity [%]
111 | O=C(O)C1CCCN(CCO/N=C/c2ccccc2-c2cccc3ccccc23)C1 (racemic) | 45
112 | O=C(O)C1CCCN(CCO/N=C/c2ccccc2-c2cccnc2)C1 (racemic) | 37
113 | O=C(O)C1CCCN(CCO/N=C/c2ccccc2-c2ccco2)C1 (racemic) | 32
114 | O=C(O)C1CCCN(CCO/N=C/c2ccccc2-n2cccc2)C1 (racemic) | 33
115 | O=C(O)C1CCCN(CCO/N=C/c2ccccc2OCc2ccccc2)C1 (racemic) | 29
116 | O=C(O)C1CCCN(CCO/N=C/c2ccccc2Oc2ccccc2)C1 (racemic) | 37
117 | O=C(O)C1CCCN(CCO/N=C/c2ccccc2[N+](=O)[O-])C1 (racemic) | 60
118 | O=C(O)C1CCCN(CCO/N=C/c2ccccn2)C1 (racemic) | 45
119 | O=C(O)C1CCCN(CCO/N=C/c2cccnc2)C1 (racemic) | 48
120 | O=C(O)C1CCCN(CCO/N=C/c2cccnc2-c2ccc(Cl)cc2)C1 (racemic) | 22
121 | O=C(O)C1CCCN(CCO/N=C/c2cccnc2-c2cccc(Cl)c2)C1 (racemic) | 32
122 | O=C(O)C1CCCN(CCO/N=C/c2cccnc2-c2cccc(F)c2)C1 (racemic) | 22
123 | O=C(O)C1CCCN(CCO/N=C/c2cccnc2-c2ccccc2)C1 (racemic) | 22
124 | O=C(O)C1CCCN(CCO/N=C/c2cccnc2-c2ccccc2Cl)C1 (racemic) | 33
125 | O=C(O)C1CCCN(CCO/N=C/c2cccnc2-c2ccccc2F)C1 (racemic) | 32
126 | O=C(O)C1CCCN(CCO/N=C/c2cccnc2Br)C1 (racemic) | 71
127 | O=C(O)C1CCCN(CCO/N=C/c2ccnc3ccccc23)C1 (racemic) | 62
128 | O=C(O)C1CCCN(CCO/N=C/c2ccncc2)C1 (racemic) | 60
129 | O=C(O)C1CCCN(CCO/N=C/c2csc3ccccc23)C1 (racemic) | 48
130 | O=C(O)C1CCCN(CCO/N=C/c2sccc2-c2ccccc2)C1 (racemic) | 48
131 | O=C(O)C1CCCN(CCO/N=C/c2sccc2-n2cccc2)C1 (racemic) | 60
